This note sets out measurements from patent publication US20230257367A1, “NOVEL THYROID HORMONE BETA RECEPTOR AGONIST” (Chengdu Kanghong Pharmaceutical Co., Ltd., priority 2020, published 2023).

The structures appear in SMILES notation. Read-outs that look alike come from different tables or passages of the source.

The target in one series is T1, TRα-LBD/RXRα (Homo sapiens, UniProt P10827).
T1 construct: TRα-LBD (Invitrogen, PV4762), or TRβ-LBD (Invitrogen, PV4764) with a GST tag were used; purchased Invitrogen (TRα-LBD); Pharmaron (RXRα) PV4762
As to the kind of experiment: In vitro binding experiment (TR-FRET SRC2-2 co-activator peptide recruitment), TRα. It counts as biochemical. The following applies: 4 h incubation at room temperature. A general note: TR-FRET usually uses a lanthanide donor and a delayed reading to cut background.

The next series deals with T2, TRβ-LBD/RXRα (Homo sapiens, UniProt P10828).
T2 construct: TRβ-LBD (Invitrogen, PV4764) with a GST tag were used; purchased Invitrogen (TRβ-LBD); Pharmaron (RXRα) PV4764
As to the kind of experiment: In vitro binding experiment (TR-FRET SRC2-2 co-activator peptide recruitment), TRβ. It counts as biochemical. To be noted: 4 h incubation at room temperature.

A further series concerns the target T3, TRα (Homo sapiens, UniProt P10827).
T3 construct: host or cells: HEK293T
T3 sequence (P10827 1-410 isoform P10827-2): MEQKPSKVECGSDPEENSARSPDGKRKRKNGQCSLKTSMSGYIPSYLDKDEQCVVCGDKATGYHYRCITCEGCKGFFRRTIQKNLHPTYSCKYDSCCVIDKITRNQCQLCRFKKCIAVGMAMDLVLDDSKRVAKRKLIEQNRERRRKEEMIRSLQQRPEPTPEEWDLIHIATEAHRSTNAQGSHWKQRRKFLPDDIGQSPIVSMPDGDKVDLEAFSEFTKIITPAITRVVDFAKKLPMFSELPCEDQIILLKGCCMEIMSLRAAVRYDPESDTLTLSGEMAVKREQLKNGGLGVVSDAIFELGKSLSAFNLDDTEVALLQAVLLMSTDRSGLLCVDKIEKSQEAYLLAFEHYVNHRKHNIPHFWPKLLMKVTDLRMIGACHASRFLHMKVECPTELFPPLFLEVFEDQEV
T3 sequence (P19793 227-458 partner limits assumed): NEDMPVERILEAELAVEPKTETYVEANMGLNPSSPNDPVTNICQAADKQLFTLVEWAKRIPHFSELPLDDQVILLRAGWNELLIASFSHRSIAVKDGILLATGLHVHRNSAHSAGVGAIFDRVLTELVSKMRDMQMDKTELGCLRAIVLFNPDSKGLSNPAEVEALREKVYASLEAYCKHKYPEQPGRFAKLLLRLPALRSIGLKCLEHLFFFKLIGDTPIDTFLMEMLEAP
As to the kind of experiment: In vitro TRα cell transfection experiment (GAL4 luciferase reporter, HEK293T). The class given is cell-based. In general terms: A reporter such as luciferase makes a cellular process visible.

The target in another series is T4, TRβ (Homo sapiens, UniProt P10828).
T4 construct: host or cells: HEK293T
T4 sequence (P10828 217-461 limits assumed): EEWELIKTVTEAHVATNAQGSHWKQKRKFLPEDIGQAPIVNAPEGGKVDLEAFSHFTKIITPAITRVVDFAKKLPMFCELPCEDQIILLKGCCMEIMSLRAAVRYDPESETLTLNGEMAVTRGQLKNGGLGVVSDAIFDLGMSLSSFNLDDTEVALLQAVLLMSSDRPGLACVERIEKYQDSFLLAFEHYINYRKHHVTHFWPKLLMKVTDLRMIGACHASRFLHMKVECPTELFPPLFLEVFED
T4 sequence (P19793 227-458 partner limits assumed): T3 sequence (P19793 227-458 partner limits assumed)
As to the kind of experiment: In vitro TRβ cell transfection experiment (GAL4 luciferase reporter, HEK293T). It counts as cell-based.

Series [1] is described as follows: PK experiment of cynomolgus monkeys. To be noted: cynomolgus monkey, plasma; for half-life / AUC(0-t) / Cmax: single dose; for half-life: male cynomolgus monkeys, read-out: Half-life period (T1/2) (converted); for AUC(0-t): read-out: Area under the curve AUC(0-t) in the case of administration; for Cmax: read-out: Peak concentration Cmax. The class given is in vivo. The text has this:
The purpose of this experiment was to evaluate the pharmacokinetic behavior of the compound to be tested after single intravenous and intragastric administration, and to study the bioavailability after intragastric administration, providing animal experimental data for clinical studies.
Preparation of solutions for intravenous injection and intragastric administration: an appropriate amount of compound to be tested was accurately weighed, and mixed with a suitable solvent (5 vol % DMSO+10 vol % polyethylene glycol−15-hydroxystearate+85 vol % normal saline). After vortex, or ultrasound processing, a clear and transparent solution (the solution for intravenous injection administration), or a uniform suspension was obtained. The solution administrated by intravenous injection needed to be filtered through a 0.22 μm filter membrane
Experimental design: before the first dose the cynomolgus monkeys were divided into 2 groups by body weight with 3 male cynomolgus monkeys in each group, where animals in group 1 were given the compound to be tested (1 mg/kg) by single intravenous injection (IV); and animals in the 2rd group were administrated with the compound to be tested (5 mg/kg) by single intragastric administration (PO). The animals were weighed before administration, and dosages were calculated based on the weights of the animals.
Sample collection: a whole blood sample (about 0.2 mL) was collected at a specified time by venipuncture of an upper limb (or other suitable blood collection sites), and the actual blood collection time was recorded in test records. The acceptable error for one acquisition time point within 1 hour after administration is ±1 minute, and the acceptable error for other time points is ±5% of the theoretical time. All blood samples were immediately transferred to a labeled commercial centrifuge tube containing K2-EDTA. After blood sample collection, the blood sample was centrifuged at 4° C. and 3,200 g for 10 minutes, the supernatant plasma was sucked, quickly put in dry ice, and kept in a refrigerator at −70±10° C. for LC-MS/MS analysis. The collection time of both groups was 0.083 hour, 0.25 hour, 0.5 hour, 1 hour, 2 hours, 4 hours, 8 hours and 24 hours after administration.
Data processing: Area under the curve (AUC(0-t) and AUC(0-∞)), elimination half-life (T½), peak concentration (Cmax), time to reach maximum plasma concentration (Tmax), etc., were calculated by the non-compartment analysis module in Phoenix WinNonlin 7.0.

T1 sequence (P19793 whole entry partner, other chains not shown, the tested form may be a part): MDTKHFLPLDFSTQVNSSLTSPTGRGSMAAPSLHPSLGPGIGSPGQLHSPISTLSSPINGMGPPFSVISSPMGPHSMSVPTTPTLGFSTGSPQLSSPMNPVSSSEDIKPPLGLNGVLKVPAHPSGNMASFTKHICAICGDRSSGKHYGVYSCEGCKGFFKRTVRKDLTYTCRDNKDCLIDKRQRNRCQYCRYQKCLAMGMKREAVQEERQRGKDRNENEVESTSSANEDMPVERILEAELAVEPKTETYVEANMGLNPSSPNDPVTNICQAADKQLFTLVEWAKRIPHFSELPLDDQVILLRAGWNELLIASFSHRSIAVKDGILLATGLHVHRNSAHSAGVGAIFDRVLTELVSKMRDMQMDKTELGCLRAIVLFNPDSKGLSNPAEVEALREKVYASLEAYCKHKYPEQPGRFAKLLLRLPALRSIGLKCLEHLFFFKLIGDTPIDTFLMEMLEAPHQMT
T2 sequence (P19793 whole entry partner, other chains not shown, the tested form may be a part): as above

Usually EC50 stands for the concentration needed to bring the measured effect to its halfway point. Lower therefore signals higher potency in that assay. The bioavailability is dose-corrected exposure relative to a reference, in per cent. With `CC(C)c1nc(Oc2c(Cl)cc(-n3ncc(=O)[nH]c3=O)cc2Cl)ncc1O` [KH06], the half-maximal effective concentration (EC50) at TRα-LBD/RXRα was determined as 0.094 µM; at TRβ-LBD/RXRα, 0.007 µM; on TRα, 0.037 µM; at TRβ it was 0.009 µM. Moreover, the half-life in series [1] (IV, 1 mg/kg) was 9 h; in series [1] (PO, 5 mg/kg), 16.7 h. Moreover, in series [1] (male, PO 5 mg/kg vs IV 1 mg/kg, read-out: Bioavailability (F)), the bioavailability was determined as 73%. Also, the AUC(0-t) was 48.8 µg·h/mL in series [1] (male, IV, 1 mg/kg) and 178 µg·h/mL in series [1] (male, PO, 5 mg/kg). Also, the Cmax in series [1] (male, IV, 1 mg/kg) was determined as 20.7 µg/mL; in series [1] (male, PO, 5 mg/kg) it was 18.3 µg/mL.
